Measurements reported in ChEMBL document CHEMBL5154800, “Identification of N, C-capped di- and tripeptides as selective immunoproteasome inhibitors” (Eur J Med Chem, 2022).
Calls of active or inactive are those of the source. No cut-off for these calls is given here.

Assays:
MCF7 = assay: Antiproliferative activity against human MCF7 cells assessed as growth inhibition at 0.2 uM measured after 72 hrs by MTT assay; format: functional; conditions: read-out: GI
HCT-116 [1] = assay: Antiproliferative activity against human HCT-116 cells assessed as growth inhibition measured after 72 hrs by CCK-8 assay; format: functional, cell-based; conditions: HCT-116, 72 h
DOHH-2 = assay: Antiproliferative activity against human DOHH-2 cells assessed as growth inhibition at 0.2 uM measured after 72 hrs by MTT assay; format: functional; conditions: read-out: GI
Pfeiffer = assay: Antiproliferative activity against human Pfeiffer cells assessed as growth inhibition at 0.2 uM measured after 72 hrs by MTT assay; format: functional; conditions: read-out: GI
HT-29 = assay: Antiproliferative activity against human HT-29 cells assessed as growth inhibition at 0.2 uM measured after 72 hrs by MTT assay; format: functional; conditions: read-out: GI
HCT-116 [2] = assay: Antiproliferative activity against human HCT-116 cells assessed as growth inhibition at 0.2 uM measured after 72 hrs by MTT assay; format: functional; conditions: read-out: GI
[3] = Selectivity ratio of IC50 for inhibition of 20S proteasome beta 5c subunit (unknown origin) to IC50 for inhibition of 20S proteasome subunit beta-5i
THP-1 [4] = assay: Antiinflammatory activity against LPS-stimulated human THP-1 cells assessed inhibition of TNF-alpha release at 40 uM measured by ELISA; format: functional, cell-based
THP-1 [5] = assay: Antiinflammatory activity against LPS-stimulated human THP-1 cells assessed inhibition of IL-6 release at 40 uM measured by ELISA; format: functional, cell-based
[6] = target: T1, Proteasome subunit beta type-10 (Homo sapiens, UniProt P40306); assay: Inhibition of 20S proteasome subunit beta-2i (unknown origin) using Ac-KQL-AMC as substrate and measured after 30 mins
T1 sequence (P40306 whole entry): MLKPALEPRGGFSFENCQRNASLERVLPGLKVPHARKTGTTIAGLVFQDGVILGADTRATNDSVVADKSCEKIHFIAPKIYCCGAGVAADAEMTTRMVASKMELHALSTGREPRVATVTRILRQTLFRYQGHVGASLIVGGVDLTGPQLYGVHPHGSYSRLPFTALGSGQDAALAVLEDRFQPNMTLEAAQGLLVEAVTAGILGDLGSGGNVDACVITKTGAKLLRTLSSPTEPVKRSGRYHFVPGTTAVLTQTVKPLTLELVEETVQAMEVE

[7] = target: T2, Proteasome subunit beta type-9 (Homo sapiens, UniProt P28065); assay: Inhibition of 20S proteasome subunit beta-1i (unknown origin) using Ac-PAL-AMC as substrate and measured after 30 mins
T2 sequence (P28065 whole entry): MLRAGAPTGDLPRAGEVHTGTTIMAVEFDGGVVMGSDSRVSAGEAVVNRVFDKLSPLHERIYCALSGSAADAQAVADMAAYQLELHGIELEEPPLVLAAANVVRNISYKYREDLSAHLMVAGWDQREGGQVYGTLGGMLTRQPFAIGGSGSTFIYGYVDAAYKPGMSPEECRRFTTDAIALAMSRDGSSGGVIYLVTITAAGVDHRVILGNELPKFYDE

[8] = target: T3, Proteasome Macropain subunit MB1 (Homo sapiens, UniProt P28074); assay: Inhibition of 20S proteasome subunit beta-5c (unknown origin) using Ac-WLA-AMC as substrate and measured after 30 mins
T3 sequence (P28074 whole entry): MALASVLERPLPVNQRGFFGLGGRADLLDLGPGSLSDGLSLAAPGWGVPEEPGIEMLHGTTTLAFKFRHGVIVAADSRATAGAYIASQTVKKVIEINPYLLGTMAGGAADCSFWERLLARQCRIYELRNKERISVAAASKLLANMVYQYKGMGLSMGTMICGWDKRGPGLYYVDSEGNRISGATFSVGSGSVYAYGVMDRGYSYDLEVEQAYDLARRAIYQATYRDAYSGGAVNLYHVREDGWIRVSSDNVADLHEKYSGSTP

[9] = target: T4, Proteasome subunit beta type-8 (Homo sapiens, UniProt P28062); assay: Inhibition of 20S proteasome subunit beta-5i (unknown origin) using Ac-ANW-AMC as substrate and measured after 30 mins
T4 sequence (P28062 whole entry): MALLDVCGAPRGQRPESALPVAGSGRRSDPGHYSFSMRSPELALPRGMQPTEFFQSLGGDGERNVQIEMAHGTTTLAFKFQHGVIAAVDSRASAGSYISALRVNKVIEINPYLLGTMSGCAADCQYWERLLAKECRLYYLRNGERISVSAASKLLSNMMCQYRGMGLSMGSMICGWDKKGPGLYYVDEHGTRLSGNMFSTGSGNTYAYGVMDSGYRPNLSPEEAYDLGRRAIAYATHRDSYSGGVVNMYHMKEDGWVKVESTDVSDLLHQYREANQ

Row | SMILES | IC50 (HCT-116 [1]) [nM] | Ratio IC50 [3] | IC50 [6] [nM] | IC50 [7] [nM] | IC50 [8] [nM] | IC50 [9] [nM] | inhibition of growth at 0.2 µM (MCF7) [%] | inhibition of growth at 0.2 µM (DOHH-2) [%] | inhibition of growth at 0.2 µM (Pfeiffer) [%] | inhibition of growth at 0.2 µM (HT-29) [%] | inhibition of growth at 0.2 µM (HCT-116 [2]) [%] | Activity (THP-1 [4]) | Activity (THP-1 [5])
1 | Cc1ccc(CNC(=O)[C@H](Cc2ccccc2)NC(=O)[C@H](CCC(=O)NC(C)(C)C)NC(=O)[C@H](CNC(=O)CCl)NC(=O)c2cc(C)on2)cc1 | 460 |  |  |  |  |  | < 20 | < 20 | 30 | 54 | 83 |  | 
2 | CC(C)(C)NC(=O)CC[C@H](NC(=O)CCNC(=O)/C(C#N)=C/c1ccc(Cl)cc1)C(=O)N[C@@H](Cc1ccc2ccccc2c1)C(=O)NCc1cccc2ccccc12 |  | 222 |  |  |  |  | < 20 | < 20 | 28 | < 20 | < 20 | Active | Active
3 | Cc1ccc(CNC(=O)[C@H](Cc2ccccc2)NC(=O)[C@H](CCC(=O)NC(C)(C)C)NC(=O)[C@H](CNC(=O)CCl)NS(=O)(=O)c2ccc(C)cc2)cc1 | 1090 |  |  |  |  |  | < 20 | 34 | 26 | 59 | 85 |  | 
4 | COc1ccc(C[C@H](NC(=O)[C@H](C)NC(=O)CN2CCOCC2)C(=O)NC(Cc2ccccc2)C(=O)[C@@]2(C)CO2)cc1 (stereo partly drawn) | 730 |  |  |  |  |  | < 20 | 56 | 36 | 54 | 75 | Active | Active
5 | Cc1ccc(CNC(=O)[C@H](Cc2ccccc2)NC(=O)[C@H](CC(N)=O)NC(=O)[C@H](CNC(=O)CCl)NC(=O)CN2CCOCC2)cc1 |  | > 4 |  |  | > 10000 | 2760 |  |  |  |  |  | Active | Active
6 | Cc1ccc(CNC(=O)[C@H](Cc2ccccc2)NC(=O)[C@H](CCC(=O)NC(C)(C)C)NC(=O)[C@H](CNC(=O)CCl)NC(=O)CCCc2ccccc2)cc1 | 880 |  |  |  |  |  | < 20 | 25 | 23 | 53 | 82 |  | 
7 | CC(C)(C)NC(=O)CC[C@H](NC(=O)CCNC(=O)/C(C#N)=C/c1ccc(Cl)cc1)C(=O)N[C@@H](Cc1ccccc1)C(=O)NCc1cccc2ccccc12 |  | 124 |  |  |  |  | < 20 | 34 | 32 | < 20 | 26 | Active | Active

Further lines, with some results ahead:

Row | IC50 (HCT-116 [1]) [nM] | Ratio IC50 [3] | IC50 [6] [nM] | IC50 [7] [nM] | IC50 [8] [nM] | IC50 [9] [nM] | SMILES | inhibition of growth at 0.2 µM (MCF7) [%] | inhibition of growth at 0.2 µM (DOHH-2) [%] | inhibition of growth at 0.2 µM (Pfeiffer) [%] | inhibition of growth at 0.2 µM (HT-29) [%] | inhibition of growth at 0.2 µM (HCT-116 [2]) [%] | Activity (THP-1 [4]) | Activity (THP-1 [5])
8 |  | 36 |  |  |  |  | COc1ccc(C[C@H](NC(=O)[C@H](CCC(=O)NC(C)(C)C)NC(=O)CCNC(=O)CCl)C(=O)NCc2ccc(C)cc2)cc1 | < 20 | < 20 | 28 | < 20 | 29 | Active | Active
9 |  | 535 | > 40000 | > 40000 |  |  | CC(C)(C)NC(=O)CC[C@H](NC(=O)CCNC(=O)CCl)C(=O)N[C@@H](Cc1ccc2ccccc2c1)C(=O)NCc1cccc2ccccc12 | 25 | < 20 | < 20 | < 20 | 21 | Active | Active
10 |  | 274 |  |  |  |  | CCC(=O)NCCC(=O)N[C@@H](CCC(=O)NC(C)(C)C)C(=O)N[C@@H](Cc1ccccc1)C(=O)NCc1cccc2ccccc12 | < 20 | < 20 | < 20 | < 20 | < 20 | Active | Active
11 | 800 |  |  |  | 84.1 |  | Cc1ccc(CNC(=O)[C@H](Cc2ccc([N+](=O)[O-])cc2)NC(=O)[C@H](CCC(=O)NC(C)(C)C)NC(=O)CCNC(=O)CCl)cc1 | < 20 | < 20 | < 20 | < 20 | 58 |  | 
12 | 160 |  | > 40000 | > 40000 |  | 2.92 | Cc1ccc(CNC(=O)[C@H](Cc2ccccc2)NC(=O)[C@H](CCC(=O)NC(C)(C)C)NC(=O)CCNC(=O)/C(C#N)=C/c2ccco2)cc1 | < 20 | 23 | < 20 | 48 | 76 |  | 
13 | 1700 |  |  |  |  |  | Cc1ccc(CNC(=O)[C@H](Cc2ccc3ccccc3c2)NC(=O)[C@H](CCC(=O)NC(C)(C)C)NC(=O)CCNC(=O)CCl)cc1 | < 20 | < 20 | 28 | < 20 | 60 | Active | Active
14 |  | 113 | > 40000 | > 40000 |  | 3.82 | CC(C)(C)NC(=O)CC[C@H](NC(=O)CCNC(=O)CCl)C(=O)N[C@@H](Cc1ccccc1)C(=O)NCc1cccc2ccccc12 | < 20 | < 20 | < 20 | < 20 | 21 | Active | Active
